Publication PMC3885398, “Evaluation of the Antitumor Effects of BPR1J-340, a Potent and Selective FLT3 Inhibitor, Alone or in Combination with an HDAC Inhibitor, Vorinostat, in AML Cancer” (PLoS ONE, 2014)

How the values were obtained:
Type in all cases: biochemical
Aurora A kinase = Aurora A kinase (Homo sapiens, UniProt O14965); experiment: Aurora A kinase inhibition
Experimental: (§1) BPR1J-340, a urea-substituted 3-phenyl-1H-5-pyrazolylamine-based compound, was designed through chemical modification of sulfonamide series of derivatives (BPR1J-097 series) by a structure-activity relationship (SAR) study (Fig. 1), [32]. For kinase inhibition specificity screening, BPR1J-340 was tested against 59 protein kinases covering the major oncogenic kinases of human protein kinome. […] In addition, BPR1J-340 inhibited TRKA, which is associated with the growth and metastasis of breast cancers, with an IC50 value of 8 nM. Given the high similarity of the ATP binding pockets of FLT3 and the Aurora kinases, the inhibitory activity toward Aurora A and Aurora B were measured. […] Taken together, BPRJ-340 is a selective kinase inhibitor with in vitro activity against FLT3, VEGFR2, VEGFR3 and TRKA receptor tyrosine kinases.

KDR (VEGFR2) = KDR (VEGFR2) (Homo sapiens, UniProt P35968); experiment: Invitrogen SelectScreen kinase profiling; design: purchased Invitrogen SelectScreen; details: 100 nM
Experimental: (§2) The FLT3 and VEGFR1/2 Kinase-Glo kinase assays were performed as reported by our earlier study. The VEGFR3 activity analysis was conducted using the same protocol described in the VEGFR1/2 assay. The kinase inhibition profiling and inhibitory activity of FLT3-D835Y, CSF1R, and TRKA were determined by Invitrogen SelectScreen® kinase profiling service (Carlsbad, California, USA).
as §1

FLT4 (VEGFR3) = FLT4 (VEGFR3) (Homo sapiens, UniProt P35916); experiment: Invitrogen SelectScreen kinase profiling; design: purchased Invitrogen SelectScreen; details: 100 nM
Experimental: as §2, §1

NTRK1 (TRKA) = NTRK1 (TRKA) (Homo sapiens, UniProt P04629); experiment: Invitrogen SelectScreen kinase profiling / IC50
Experimental: as §2, §1

FLT3 D835Y = target: T1, FLT3 D835Y (Homo sapiens, UniProt P36888, D835Y); experiment: Invitrogen SelectScreen kinase profiling / IC50
T1 sequence (P36888 27-993 D835Y): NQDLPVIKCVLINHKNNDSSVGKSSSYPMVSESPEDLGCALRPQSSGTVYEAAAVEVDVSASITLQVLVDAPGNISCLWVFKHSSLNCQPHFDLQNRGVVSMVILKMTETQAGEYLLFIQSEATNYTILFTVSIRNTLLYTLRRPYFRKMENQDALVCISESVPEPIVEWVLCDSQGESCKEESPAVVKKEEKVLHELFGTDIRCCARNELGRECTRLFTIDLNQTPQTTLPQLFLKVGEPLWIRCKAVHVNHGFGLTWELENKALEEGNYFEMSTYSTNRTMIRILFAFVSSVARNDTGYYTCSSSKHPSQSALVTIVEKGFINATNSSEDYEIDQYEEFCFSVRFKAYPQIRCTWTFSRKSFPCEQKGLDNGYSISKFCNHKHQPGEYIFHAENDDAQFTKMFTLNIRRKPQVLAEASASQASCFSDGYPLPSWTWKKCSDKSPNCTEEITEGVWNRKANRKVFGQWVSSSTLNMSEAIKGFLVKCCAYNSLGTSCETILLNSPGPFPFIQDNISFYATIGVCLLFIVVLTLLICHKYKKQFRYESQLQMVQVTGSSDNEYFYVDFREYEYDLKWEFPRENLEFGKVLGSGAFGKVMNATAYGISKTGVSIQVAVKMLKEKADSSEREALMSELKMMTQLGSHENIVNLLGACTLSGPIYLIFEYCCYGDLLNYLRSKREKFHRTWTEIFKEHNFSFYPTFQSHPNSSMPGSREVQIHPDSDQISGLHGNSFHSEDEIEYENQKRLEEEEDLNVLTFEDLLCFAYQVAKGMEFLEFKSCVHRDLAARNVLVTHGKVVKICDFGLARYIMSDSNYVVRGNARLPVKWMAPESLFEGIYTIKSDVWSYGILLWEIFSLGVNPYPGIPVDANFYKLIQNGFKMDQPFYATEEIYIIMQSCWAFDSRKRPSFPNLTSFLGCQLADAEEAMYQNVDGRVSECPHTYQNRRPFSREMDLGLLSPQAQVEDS
Experimental: as §2, §1

CSF1R (FMS) = CSF1R (FMS) (Homo sapiens, UniProt P07333); experiment: Invitrogen SelectScreen kinase profiling / IC50
Experimental: as §2, §1

Chain of CSF1R (FMS) (P07333 20-972): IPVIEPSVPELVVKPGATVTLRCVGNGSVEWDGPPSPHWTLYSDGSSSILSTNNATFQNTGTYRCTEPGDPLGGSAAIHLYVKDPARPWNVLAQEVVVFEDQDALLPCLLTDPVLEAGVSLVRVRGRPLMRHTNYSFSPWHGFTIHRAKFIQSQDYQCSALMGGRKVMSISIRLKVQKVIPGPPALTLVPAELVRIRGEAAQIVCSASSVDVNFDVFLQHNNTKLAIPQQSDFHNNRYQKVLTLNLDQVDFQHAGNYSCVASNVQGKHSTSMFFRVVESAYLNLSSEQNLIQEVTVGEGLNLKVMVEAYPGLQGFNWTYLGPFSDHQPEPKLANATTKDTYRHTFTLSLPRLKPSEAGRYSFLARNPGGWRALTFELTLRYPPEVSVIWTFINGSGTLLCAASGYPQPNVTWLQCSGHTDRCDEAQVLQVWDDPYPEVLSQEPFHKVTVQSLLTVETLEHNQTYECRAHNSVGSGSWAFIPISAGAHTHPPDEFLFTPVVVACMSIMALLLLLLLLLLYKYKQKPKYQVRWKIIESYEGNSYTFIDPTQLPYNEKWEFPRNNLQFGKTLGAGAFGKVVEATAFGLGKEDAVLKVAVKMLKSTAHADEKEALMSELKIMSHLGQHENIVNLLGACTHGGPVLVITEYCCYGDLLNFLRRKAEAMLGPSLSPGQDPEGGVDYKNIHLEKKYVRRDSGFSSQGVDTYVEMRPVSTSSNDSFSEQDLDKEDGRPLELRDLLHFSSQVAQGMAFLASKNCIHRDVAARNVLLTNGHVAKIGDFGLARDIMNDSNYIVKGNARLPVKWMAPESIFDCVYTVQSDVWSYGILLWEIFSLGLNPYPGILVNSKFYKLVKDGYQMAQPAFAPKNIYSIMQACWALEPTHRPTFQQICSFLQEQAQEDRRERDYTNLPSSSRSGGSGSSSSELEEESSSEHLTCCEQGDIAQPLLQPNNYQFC
Chain of NTRK1 (TRKA) (P04629 33-796): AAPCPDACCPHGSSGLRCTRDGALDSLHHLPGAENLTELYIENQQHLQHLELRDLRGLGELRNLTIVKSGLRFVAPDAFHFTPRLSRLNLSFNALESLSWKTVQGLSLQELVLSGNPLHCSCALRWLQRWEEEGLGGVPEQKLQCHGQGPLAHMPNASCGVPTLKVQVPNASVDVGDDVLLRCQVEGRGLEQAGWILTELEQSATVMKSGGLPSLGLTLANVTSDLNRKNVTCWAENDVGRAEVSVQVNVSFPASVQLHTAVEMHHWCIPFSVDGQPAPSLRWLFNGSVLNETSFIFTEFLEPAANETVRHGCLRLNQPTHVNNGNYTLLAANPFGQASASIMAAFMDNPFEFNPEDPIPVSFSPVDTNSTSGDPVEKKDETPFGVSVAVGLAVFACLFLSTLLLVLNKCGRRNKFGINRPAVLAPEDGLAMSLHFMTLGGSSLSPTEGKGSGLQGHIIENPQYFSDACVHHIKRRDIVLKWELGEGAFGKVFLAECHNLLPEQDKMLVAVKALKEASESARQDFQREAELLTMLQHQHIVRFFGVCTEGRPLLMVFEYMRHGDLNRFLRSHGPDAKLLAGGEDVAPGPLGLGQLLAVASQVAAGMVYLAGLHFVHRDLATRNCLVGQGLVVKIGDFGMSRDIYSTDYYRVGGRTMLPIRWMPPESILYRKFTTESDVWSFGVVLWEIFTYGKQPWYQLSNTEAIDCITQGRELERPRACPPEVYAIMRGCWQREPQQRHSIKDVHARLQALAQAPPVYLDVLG
Chain of Aurora A kinase (O14965 whole entry): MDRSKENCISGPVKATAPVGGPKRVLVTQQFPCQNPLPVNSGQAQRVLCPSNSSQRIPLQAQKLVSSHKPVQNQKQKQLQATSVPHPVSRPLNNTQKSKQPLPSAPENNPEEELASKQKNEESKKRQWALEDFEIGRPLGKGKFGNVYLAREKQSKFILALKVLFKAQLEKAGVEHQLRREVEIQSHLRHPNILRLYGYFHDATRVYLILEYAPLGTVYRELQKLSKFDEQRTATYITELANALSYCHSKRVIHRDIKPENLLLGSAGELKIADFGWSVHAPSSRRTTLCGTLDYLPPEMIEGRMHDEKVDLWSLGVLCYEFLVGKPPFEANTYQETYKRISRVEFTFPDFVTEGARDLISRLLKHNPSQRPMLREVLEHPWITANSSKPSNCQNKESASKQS
Chain of KDR (VEGFR2) (P35968 20-1356): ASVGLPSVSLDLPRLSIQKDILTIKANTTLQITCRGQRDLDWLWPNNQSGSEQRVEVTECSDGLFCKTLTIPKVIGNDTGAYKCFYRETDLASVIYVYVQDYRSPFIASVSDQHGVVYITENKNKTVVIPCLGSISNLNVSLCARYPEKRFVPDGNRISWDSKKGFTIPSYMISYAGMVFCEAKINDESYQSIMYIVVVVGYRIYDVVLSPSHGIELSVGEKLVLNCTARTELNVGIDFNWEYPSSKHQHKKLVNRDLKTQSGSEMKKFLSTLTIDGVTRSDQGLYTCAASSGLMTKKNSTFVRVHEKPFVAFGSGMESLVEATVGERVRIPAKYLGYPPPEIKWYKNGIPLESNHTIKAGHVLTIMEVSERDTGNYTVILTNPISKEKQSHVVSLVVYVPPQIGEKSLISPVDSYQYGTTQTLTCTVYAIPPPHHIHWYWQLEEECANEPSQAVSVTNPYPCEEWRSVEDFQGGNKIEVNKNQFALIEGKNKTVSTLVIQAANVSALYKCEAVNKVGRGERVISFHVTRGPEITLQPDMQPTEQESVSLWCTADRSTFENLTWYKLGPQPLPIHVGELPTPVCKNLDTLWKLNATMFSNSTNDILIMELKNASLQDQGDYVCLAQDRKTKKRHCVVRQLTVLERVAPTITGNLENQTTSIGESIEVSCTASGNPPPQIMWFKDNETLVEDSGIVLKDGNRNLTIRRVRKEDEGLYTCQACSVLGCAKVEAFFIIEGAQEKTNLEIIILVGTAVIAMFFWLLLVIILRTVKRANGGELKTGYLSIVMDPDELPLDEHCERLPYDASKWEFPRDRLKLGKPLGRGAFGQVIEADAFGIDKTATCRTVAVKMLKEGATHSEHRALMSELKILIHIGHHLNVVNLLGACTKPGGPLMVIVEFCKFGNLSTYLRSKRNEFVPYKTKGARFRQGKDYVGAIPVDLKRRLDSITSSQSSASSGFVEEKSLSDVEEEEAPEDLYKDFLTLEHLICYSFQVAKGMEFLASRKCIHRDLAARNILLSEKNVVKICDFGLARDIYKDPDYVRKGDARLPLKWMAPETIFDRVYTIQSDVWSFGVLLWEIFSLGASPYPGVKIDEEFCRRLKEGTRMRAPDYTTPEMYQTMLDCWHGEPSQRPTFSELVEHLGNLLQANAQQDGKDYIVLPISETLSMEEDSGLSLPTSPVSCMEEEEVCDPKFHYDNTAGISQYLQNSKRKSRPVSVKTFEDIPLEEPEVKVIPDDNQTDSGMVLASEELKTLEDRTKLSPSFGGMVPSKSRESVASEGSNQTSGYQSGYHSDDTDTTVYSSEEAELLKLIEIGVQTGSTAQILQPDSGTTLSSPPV
Chain of FLT4 (VEGFR3) (P35916 25-1363): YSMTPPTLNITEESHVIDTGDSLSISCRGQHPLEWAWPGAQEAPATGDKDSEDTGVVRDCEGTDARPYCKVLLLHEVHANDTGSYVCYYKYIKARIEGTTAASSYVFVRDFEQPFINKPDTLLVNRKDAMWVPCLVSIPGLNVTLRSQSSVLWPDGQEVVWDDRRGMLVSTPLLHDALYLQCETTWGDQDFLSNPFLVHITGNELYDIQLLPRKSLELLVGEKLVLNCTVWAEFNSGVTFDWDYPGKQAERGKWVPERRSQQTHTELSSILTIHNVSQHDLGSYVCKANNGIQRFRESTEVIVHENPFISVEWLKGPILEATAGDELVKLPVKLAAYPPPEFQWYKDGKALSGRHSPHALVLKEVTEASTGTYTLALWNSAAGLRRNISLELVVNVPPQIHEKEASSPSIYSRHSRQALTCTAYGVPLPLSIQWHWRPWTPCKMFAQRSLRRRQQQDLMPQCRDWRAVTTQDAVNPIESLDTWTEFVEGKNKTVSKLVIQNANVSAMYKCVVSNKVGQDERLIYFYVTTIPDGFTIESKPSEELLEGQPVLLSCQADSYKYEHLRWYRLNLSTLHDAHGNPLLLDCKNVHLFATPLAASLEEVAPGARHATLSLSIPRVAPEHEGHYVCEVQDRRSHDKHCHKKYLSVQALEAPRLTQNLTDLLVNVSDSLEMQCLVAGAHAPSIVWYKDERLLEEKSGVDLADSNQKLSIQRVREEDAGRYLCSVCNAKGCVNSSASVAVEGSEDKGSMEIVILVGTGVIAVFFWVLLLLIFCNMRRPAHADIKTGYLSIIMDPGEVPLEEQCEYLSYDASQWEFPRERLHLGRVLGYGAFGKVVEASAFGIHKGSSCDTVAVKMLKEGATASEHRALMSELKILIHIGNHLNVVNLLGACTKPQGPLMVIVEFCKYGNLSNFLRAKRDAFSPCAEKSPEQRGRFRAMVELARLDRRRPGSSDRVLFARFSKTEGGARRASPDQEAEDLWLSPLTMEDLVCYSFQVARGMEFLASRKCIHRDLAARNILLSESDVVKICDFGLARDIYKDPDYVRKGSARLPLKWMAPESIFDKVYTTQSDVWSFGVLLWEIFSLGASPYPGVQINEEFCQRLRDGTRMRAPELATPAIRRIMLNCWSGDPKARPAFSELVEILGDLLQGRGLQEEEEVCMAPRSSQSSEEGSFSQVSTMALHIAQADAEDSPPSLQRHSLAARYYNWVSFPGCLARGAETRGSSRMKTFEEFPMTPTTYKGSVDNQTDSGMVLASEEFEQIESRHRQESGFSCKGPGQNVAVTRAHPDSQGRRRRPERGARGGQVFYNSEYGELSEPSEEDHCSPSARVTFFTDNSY

`CCc1cc(NC(=O)NCc2ccc(-c3cc(NC(=O)c4ccc(CN5CCN(C)CC5)cc4)[nH]n3)cc2)no1` [BPR1J-340, N1-(3-4-[([(5-ethyl-3-isoxazolyl)amino]carbonylamino)methyl]phenyl-1H-5-pyrazolyl)-4-[(4-methylpiperazino)methyl]benzamide] gave an IC50 (Aurora A kinase) of 1040 nM, an inhibition at 0.1 µM (KDR (VEGFR2)) of 69% and an inhibition at 0.1 µM (FLT4 (VEGFR3)) of 45%. It also gave an inhibition at 0.1 µM (NTRK1 (TRKA); NTRK1 (TRKA), 100 nM) of 89%, an IC50 (NTRK1 (TRKA); TRKA, Invitrogen SelectScreen kinase assay) of 8 nM and an IC50 (FLT3 D835Y; FLT3-D835Y, Invitrogen SelectScreen kinase assay) of 19 nM. For the same compound, the inhibition at 0.1 µM (FLT3 D835Y; FLT3 D835Y, 100 nM) was 78%, the inhibition at 0.1 µM (CSF1R (FMS); 100 nM) was 73% and the IC50 (CSF1R (FMS); Invitrogen SelectScreen kinase assay) was 78 nM.
